# Columns and labels:
# Assay type in all cases: cell-based, Human
# DU-145 = experiment: NCI antiproliferative SRB assay, Prostate Cancer panel; conditions: for %GI / GP (growth percent): one dose 10 µM
# HT29 = experiment: NCI antiproliferative SRB assay, Colon Cancer panel; conditions: for %GI / GP (growth percent): one dose 10 µM
# MALME-3M = experiment: NCI antiproliferative SRB assay, Melanoma panel; conditions: for %GI / GP (growth percent): one dose 10 µM
# MDA-MB-468 = experiment: NCI antiproliferative SRB assay, Breast Cancer panel; conditions: for %GI / GP (growth percent): one dose 10 µM
# Procedure: The antiproliferative activity of tested compounds was done against five dozen (60) cancer cell lines derived from nine different panels. All of the compounds were evaluated for antiproliferative activity in a single dose at 10 µM. Growth percent (GP) and percent growth inhibition (% GI) were used to calculate antiproliferative activity. […] The antiproliferative results of five-dose assay were calculated as three dose related parameters like, 50% growth inhibition (GI50), 50% lethal concentration (LC50), and total growth inhibition TGI [43, 44, 45, 46, 47].
# Human tumor cell lines were grown in RPMI 1640 medium containing 5% fetal bovine serum and 2 mM L-glutamine. For a typical screening experiment, cells were inoculated into 96-well microtiter plates in 100 µL at plating densities ranging from 5000 to 40,000 cells/well, depending on the doubling time of individual cell lines. Two plates of each cell line were fixed in situ with trichloroacetic acid (TCA) after 24 h to represent a cell population measurement for each cell line at the time of drug addition (Ti). The experimental drugs were frozen after being solubilized in dimethyl sulfoxide at 400-fold the desired final maximum test concentration. An aliquot of frozen concentrate was thawed and diluted to twice the desired final maximum test concentration with medium containing 50 µg/mL gentamicin at the time of drug addition. Additional four, 10-fold, or ½ log serial dilutions serial dilutions were performed to provide a total of five drug concentrations plus the control. Aliquots of 100 µL of these different drug dilutions were added to the appropriate microtiter wells already containing 100 µL of medium, resulting in the required final drug concentrations. Following drug addition, the plates are incubated for an additional 48 h at 37 °C, 5% CO2, 95% air, and 100% relative humidity. For adherent cells, the assay is terminated by the addition of cold TCA. Cells are fixed in situ by the gentle addition of 50 µL of cold 50% (w/v) TCA (final concentration, 10% TCA) and incubated for 60 min at 4 °C. The supernatant is discarded, and the plates are washed five times with tap water and air dried. Sulforhodamine B (SRB) solution (100 µL) at 0.4% (w/v) in 1% acetic acid was added to each well, and plates were incubated for 10 min at room temperature. After staining, unbound dye was removed by washing five times with 1% acetic acid and the plates were air dried. Bound stain was subsequently solubilized with 10 mM trizma base, and the absorbance was read on an automated plate reader at a wavelength of 515 nm. For suspension cells, the methodology was the same except that the assay was terminated by fixing settled cells at the bottom of the wells by gently adding 50 µL of 80% TCA (final concentration, 16% TCA). […]
# Antiproliferative activity
# The anticancer screening was carried ou t as per the NCI US protocol. Using the seven absorbance measurements (time zero, (Ti), control growth, (C), and test growth in the presence of drug at the five concentration levels (Tf)), the percentage growth was calculated at each of the drug concentrations level as [( Tf−Ti × 100 for concentrations for which Tf ≥ Ti, and Tf−Ti × 100 for […]
# concentrations for which Tf < Ti.
# Three-dose response parameters (GI50, TGI, and LC50) were calculated for each of the experimental agents. Growth inhibition of 50% (GI50) was calculated from 100 × Tf−Ti = 50, , which was […]
# the drug concentration resulting in a 50% reduction in the net protein increase (as measured by sulforhodamine B, SRB staining) in control cells during the drug incubation. The total growth inhibition (TGI) was calculated from Tf = Ti, which was the drug concentration resulting in total growth inhibition and signified the cytostatic effect. The LC50 was calculated from 100 × Tf−Ti = −50, , indicating a net loss […]
# of cells following treatment which indicated the concentration of drug resulting in a 50% reduction in the […]
# ACHN = experiment: NCI antiproliferative SRB assay, Renal Cancer panel
# SNB-75 = experiment: NCI antiproliferative SRB assay, CNS Cancer panel; conditions: for %GI / GP (growth percent): one dose 10 µM
# [1] = tested on: Non-Small Cell Lung Cancer cell line panel; experiment: NCI antiproliferative assay, panel summary; conditions: for Mean % GI: 10 µM
# T-47D = experiment: NCI antiproliferative SRB assay, Breast Cancer panel; conditions: for %GI / GP (growth percent): one dose 10 µM
# OVCAR-4 = experiment: NCI antiproliferative SRB assay, Ovarian Cancer panel; conditions: for %GI / GP (growth percent): one dose 10 µM
# IGROV1 = experiment: as above; conditions: for %GI / GP (growth percent): one dose 10 µM
# NCI-H522 = experiment: NCI antiproliferative SRB assay, Non-Small Cell Lung Cancer panel; conditions: for %GI / GP (growth percent): one dose 10 µM
# A498 = experiment: NCI antiproliferative SRB assay, Renal Cancer panel; conditions: for %GI / GP (growth percent): one dose 10 µM
# [2] = tested on: Renal Cancer cell line panel; experiment: NCI antiproliferative assay, panel summary; conditions: for Mean % GI: 10 µM
# SK-OV-3 = experiment: NCI antiproliferative SRB assay, Ovarian Cancer panel; conditions: for %GI / GP (growth percent): one dose 10 µM
# NCI/ADR-RES = experiment: as above; conditions: for %GI / GP (growth percent): one dose 10 µM
# [3] = Homo sapiens, 5-dose 0.01-100 µM
# [4] = Homo sapiens, 5-dose 0.01-100 µM, read-out: LC50 (the source's name)
# [5] = Homo sapiens, T47D, 5-dose 0.01-100 µM
smiles,measurement,setting,value
COc1cc(/C=C/c2cc(/C=C/c3ccc(O)c(OC)c3)n(C(=O)Nc3ccc(C(F)(F)F)cc3)n2)ccc1O [3c],TGI,DU-145; 5-dose 0.01-100 µM,13.0 µM
same,GI50,DU-145; [3],3.67 µM
same,CC50,DU-145; [4],45.3 µM
same,%GI,DU-145,52.45%
same,GP (growth percent),DU-145,47.55
same,TGI,HT29; 5-dose 0.01-100 µM,4.13 µM
same,GI50,"HT29; Homo sapiens, HT-29, 5-dose 0.01-100 µM",2020 nM
same,CC50,"HT29; Homo sapiens, HT-29, 5-dose 0.01-100 µM, read-out: LC50 (the source's name)",8.44 µM
same,%GI,HT29,96.50%
same,GP (growth percent),HT29,3.50
same,TGI,MALME-3M; 5-dose 0.01-100 µM,8.40 µM
same,GI50,MALME-3M; [3],2890 nM
same,CC50,MALME-3M; [4],32.6 µM
same,%GI,MALME-3M,47.73%
same,GP (growth percent),MALME-3M,52.27
same,LC50 (50% lethal concentration),"MDA-MB-468; Homo sapiens, MDA-MB-468, read-out: LC50",> 100 µM
same,GI50,"MDA-MB-468; Homo sapiens, MDA-MB-468, 5-dose 0.01-100 µM",2300 nM
same,TGI,"MDA-MB-468; MDA-MB-468, 5-dose 0.01-100 µM",6.25 µM
same,%GI,MDA-MB-468; MDA-MB-468,56.21%
same,GP (growth percent),MDA-MB-468; MDA-MB-468,43.79
same,TGI,ACHN; 5-dose 0.01-100 µM,7.08 µM
same,GI50,ACHN; [3],2480 nM
same,CC50,ACHN; [4],> 100 µM
same,GP (growth percent),ACHN; one dose 10 µM,65.82
same,TGI,SNB-75; 5-dose 0.01-100 µM,66.0 µM
same,GI50,SNB-75; [3],2990 nM
same,CC50,SNB-75; [4],> 100 µM
same,%GI,SNB-75,28.20%
same,GP (growth percent),SNB-75,71.80
same,Mean % GI,[1],48.83%
same,Selectivity Ratio (MID a:MID b),[1]; 5-dose assay,0.82
same,GI50,"[1]; Homo sapiens, 5-dose assay, read-out: Sub Panel MID b (mean GI50 of panel)",3.44 µM
same,TGI,T-47D; 5-dose 0.01-100 µM,39.0 µM
same,GI50,T-47D; [5],2810 nM
same,"LC50 (lethal concentration, 50% cell kill)",T-47D; [5],> 100 µM
same,%GI,T-47D,52.60%
same,GP (growth percent),T-47D,47.40
same,TGI,OVCAR-4; 5-dose 0.01-100 µM,52.7 µM
same,GI50,OVCAR-4; [3],3.51 µM
same,CC50,OVCAR-4; [4],> 100 µM
same,%GI,OVCAR-4,23.29%
same,GP (growth percent),OVCAR-4,76.71
same,TGI,IGROV1; 5-dose 0.01-100 µM,11.6 µM
same,GI50,"IGROV1; Homo sapiens, IGROV-1, 5-dose 0.01-100 µM",2770 nM
same,CC50,"IGROV1; Homo sapiens, IGROV-1, 5-dose 0.01-100 µM, read-out: LC50 (the source's name)",> 100 µM
same,%GI,IGROV1,57.18%
same,GP (growth percent),IGROV1,42.82
same,TGI,NCI-H522; 5-dose 0.01-100 µM,4.65 µM
same,GI50,NCI-H522; [3],1780 nM
same,CC50,NCI-H522; [4],40.8 µM
same,%GI,NCI-H522,92.68%
same,GP (growth percent),NCI-H522,7.32
same,GI50,A498; [3],5.81 µM
same,CC50,A498; [4],57.3 µM
same,%GI,A498,-8.03%
same,GP (growth percent),A498,108.03
same,GI50,"[2]; Homo sapiens, read-out: Sub Panel MID b (mean GI50 of panel)",3.06 µM
same,Mean % GI,[2]; Renal Cancer panel,46.37%
same,Selectivity Ratio (MID a:MID b),"[2]; Renal Cancer panel, 5-dose assay",0.93
same,TGI,SK-OV-3; 5-dose 0.01-100 µM,66.7 µM
same,GI50,SK-OV-3; [3],4.02 µM
same,CC50,SK-OV-3; [4],> 100 µM
same,%GI,SK-OV-3,33.91%
same,GP (growth percent),SK-OV-3,66.09
same,TGI,NCI/ADR-RES; 5-dose 0.01-100 µM,>100 µM
same,GI50,NCI/ADR-RES; [3],3.51 µM
same,CC50,NCI/ADR-RES; [4],> 100 µM
same,%GI,NCI/ADR-RES,48.35%
same,GP (growth percent),NCI/ADR-RES,51.65
COc1ccc(/C=C/c2cc(/C=C/c3ccc(OC)c(O)c3)n(-c3cccc(Cl)c3)c(=S)n2)cc1O [3a],%GI,DU-145,19.16%
same,GP (growth percent),DU-145,80.84
same,%GI,HT29,53.43%
same,GP (growth percent),HT29,46.57
same,%GI,MALME-3M,10.54%
same,GP (growth percent),MALME-3M,89.46
same,%GI,MDA-MB-468; MDA-MB-468,16.19%
same,GP (growth percent),MDA-MB-468; MDA-MB-468,83.81
same,%GI,ACHN; one dose 10 µM,4.99%
same,GP (growth percent),ACHN; one dose 10 µM,95.01
same,%GI,SNB-75,19.22%
same,GP (growth percent),SNB-75,80.78
same,Mean % GI,[1],17.22%
same,%GI,T-47D,36.18%
same,GP (growth percent),T-47D,63.82
same,%GI,OVCAR-4,17.45%
same,GP (growth percent),OVCAR-4,82.55
same,%GI,IGROV1,4.74%
same,GP (growth percent),IGROV1,95.26
same,%GI,NCI-H522,62.11%
same,GP (growth percent),NCI-H522,37.89
same,%GI,A498,−4.38%
same,GP (growth percent),A498,104.38
same,Mean % GI,[2]; Renal Cancer panel,7.23%
same,%GI,SK-OV-3,−0.88%
same,GP (growth percent),SK-OV-3,100.88
same,%GI,NCI/ADR-RES,3.63%
same,GP (growth percent),NCI/ADR-RES,96.37

# Source: paper PMC8398451, “Molecular Engineering of Curcumin, an Active Constituent of Curcuma longa L. (Turmeric) of the Family Zingiberaceae with Improved Antiproliferative Activity” (Plants, 2021)
